Tested on: mPTPB
Experiment: IFN-γ induced Erk1/2 phosphorylation in mPTPB transfected Raw264.7 cells
Format: cell-based, mouse
Protocol: Raw264.7 mouse macrophages were cultured in Dulbecco's modified Eagle's medium (DMEM) supplemented with 10% FBS (Invitrogen), penicillin (50 units/mL), and streptomycin (50 μg/mL) under a humidified atmosphere containing 5% CO2 at 37° C. Transfected Raw264.7 cells (Vector, WT-mPTPB) were seeded in a 12-well plate at a density of 4×10^4 cells/well. The following day cells were treated with mPTPB inhibitor 11a for 1 hour, then stimulated with IFN-γ (200 U/ml) for 1 hour. Subsequently, the cells were washed with ice-cold phosphate buffered saline, and lysed with lysis buffer on ice for 30 minutes. Cell lysate was then cleared by centrifuging at 13,000 rpm for 15 minutes. The phosphorylation of ERK1/2 was detected by Western blotting.

Q: What does the source list for O=C(C(c1ccccc1)S(=O)(=O)O)N1CCCC2CCCCC21 (centres unmarked) [Compound L319N53]?
A: Erk1/2 phosphorylation in mPTPB transfected Raw264.7 cells (8 nM, 16 nM, and 32 nM): increased Erk1/2 phosphorylation; Erk1/2 phosphorylation in vector cells (Raw264.7 vector cells): no effect
